Laboratory results: patent US20250206758A1, “SUBSTITUTED BRIDGED RING INHIBITOR, PREPARATION METHOD THEREFOR AND APPLICATION THEREOF” (SUZHOU ZELGEN BIOPHARMACEUTICALS CO., LTD., priority 2022, published 2025)
Where two headings read alike, the source gives them in different places.

Assays:
[1] = tested on: GP2D; assay: Cell proliferation inhibition, GP2D (CellTiter-Glo 3D, 7 days); assay type: cell-based
Protocol: (§1) • (a) Resuscitating cells in T75 cell culture flask: • (b) When the cell confluence reaches 80-90%, subculturing the cells.
(§2) The diluted test compound was added to a 384-well cell culture plate with a nanoliter pipetting system, and duplicate wells were set up. An equal volume of culture medium was added to the positive control group; and an equal volume of DMSO was added to the negative control group, then centrifugation was conducted at 1000 rpm for 1 min at room temperature.
(§3) Cells were inoculated into a) 384-well culture plate, with an equal volume of cells added to the negative control group, and only an equal volume of culture medium added to the positive control group. The plate was centrifuged at 1000 rpm for 1 min at room temperature, and the final DMSO concentration of the compound was 0.5% at last. The plate was placed in a 37° C., 5% CO2 constant temperature incubator for 7 days.
(§4) 20 μL/well of CellTiter-Glo® 3D to b) was added to 384-well cell culture plate, and the plate was shook at 320 rpm for 20 min in the dark, and incubated at room temperature in the dark for 2 hrs.
(§5) The luminescence value was read using an Envision multi-functional microplate reader.
(§6) The inhibition rate (IR) of the test compound was calculated using the following formula: IR (%)=(1−(RLU compound−RLU blank control)/(RLU meidum control−RLU blank control))*100%. The inhibition rates of different concentrations of compounds were calculated in Excel, and then the inhibition curves were plotted and the related parameters (including the minimum inhibition rate, maximum inhibition rate and IC50) were calculated using GraphPad Prism software.

[2] = tested on: AsPC-1; assay: Cell proliferation inhibition, AsPC-1 (CellTiter-Glo 3D, 7 days); assay type: cell-based; details: AsPC-1, 7 days
Protocol: as §1, §2, §3, §4, §5, §6

Row | Molecule | IC50 ([1]; 168 h) | IC50 ([2]; Homo sapiens, ASPC1, 168 h) | IC50 [1] | IC50 [2]
1 | CS(=O)(=O)Nc1cc(Cl)c(C(F)(F)F)c(-c2ncc3c(N4C[C@H]5CC[C@@H](C4)N5)nc(OC[C@@]45CCCN4C[C@@]4(CC4(F)F)C5)nc3c2F)c1 [Example 39, N-(3-(4-((1R,5S)-3,8-diazabicyclo[3.2.1]octan-3-yl)-2-(((1S,7a'S)-2,2-difluorodihydro-1′H,3′H-spiro[cyclopropan-1,2′-pyrrolizin]-7a′(5′H)-yl)methoxy)-8-fluoropyridino[4,3-d]pyrimidin-7-yl)-5-chloro-4-(trifluoromethyl)phenyl)methanesulfonamide] | 38.3 nM | 521 nM | – | –
2 | Oc1cc(Cl)c(C(F)(F)F)c(-c2ncc3c(N4CC5CCC(C4)N5)nc(OC[C@@]45CCCN4C[C@@]4(CC4(F)F)C5)nc3c2F)c1 [Example 40] | 14 nM | 51.6 nM | – | –
3 | N#Cc1cc(N)cc(-c2ncc3c(N4C[C@H]5CC[C@@H](C4)N5)nc(OC[C@@]45CCCN4C[C@@]4(CC4(F)F)C5)nc3c2F)c1C(F)(F)F [Example 43, 3-(4-((1R,5S)-3,8-diazabicyclo[3.2.1]octan-3-yl)-2-(((1S,7a'S)-2,2-difluorodihydro-1′H,3′H-spiro[cyclopropan-1,2′-pyrrolizin]-7a′(5′H)-yl)methoxy)-8-fluoropyridino[4,3-d]pyrimidin-7-yl)-5-amino-2-(trifluoromethyl)benzonitrile] | 4.17 nM | 115 nM | – | –
4 | Nc1cc(F)c(C(F)(F)F)c(-c2ncc3c(N4C[C@H]5CC[C@@H](C4)N5)nc(OC[C@@]45CCCN4C[C@@]4(CC4(F)F)C5)nc3c2F)c1 [Example 44, 3-(4-((1R,5S)-3,8-diazabicyclo[3.2.1]octan-3-yl)-2-(((1S,7a'S)-2,2-difluorodihydro-1′H,3′H-spiro[cyclopropan-1,2′-pyrrolizin]-7a′(5′H)-yl)methoxy)-8-fluoropyridino[4,3-d]pyrimidin-7-yl)-5-fluoro-4-(trifluoromethyl)aniline] | 1.6 nM | 23.3 nM | – | –
5 | Nc1cc(-c2ncc3c(N4C[C@H]5CC[C@@H](C4)N5)nc(OC[C@@]45CCCN4C[C@@]4(CC4(F)F)C5)nc3c2F)c(Cl)c(C(F)(F)F)c1 [Example 45, 3-(4-((1R,5S)-3,8-diazabicyclo[3.2.1]octan-3-yl)-2-(((1S,7a'S)-2,2-difluorodihydro-1′H,3′H-spiro[cyclopropan-1,2′-pyrrolizin]-7a′(5′H)-yl)methoxy)-8-fluoropyridino[4,3-d]pyrimidin-7-yl)-4-chloro-5-(trifluoromethyl)aniline] | 60 nM | 896 nM | – | –
6 | Nc1cc(Cl)c(F)c(-c2ncc3c(N4C[C@H]5CC[C@@H](C4)N5)nc(OC[C@@]45CCCN4C[C@@]4(CC4(F)F)C5)nc3c2F)c1 [Example 46, 3-(4-((1R,5S)-3,8-diazabicyclo[3.2.1]octan-3-yl)-2-(((1S,7a'S)-2,2-difluorodihydro-1′H,3′H-spiro[cyclopropan-1,2′-pyrrolizin]-7a′(5′H)-yl)methoxy)-8-fluoropyridino[4,3-d]pyrimidin-7-yl)-5-chloro-4-fluoroaniline] | > 100 nM | > 1000 nM | – | –
7 | Nc1cc(Cl)c(Cl)c(-c2ncc3c(N4C[C@H]5CC[C@@H](C4)N5)nc(OC[C@@]45CCCN4C[C@@]4(CC4(F)F)C5)nc3c2F)c1 [Example 47, 3-(4-((1R,5S)-3,8-diazabicyclo[3.2.1]octan-3-yl)-2-(((1S,7a'S)-2,2-difluorodihydro-1′H,3′H-spiro[cyclopropan-1,2′-pyrrolizin]-7a′(5′H)-yl)methoxy)-8-fluoropyridino[4,3-d]pyrimidin-7-yl)-4,5-dichloroaniline] | 4.54 nM | 62.3 nM | – | –
8 | N#Cc1cc(N)cc(-c2ncc3c(N4C[C@H]5CC[C@@H](C4)N5)nc(OC[C@@]45CCCN4C[C@@]4(CC4(F)F)C5)nc3c2F)c1Cl [Example 48, 3-(4-((1R,5S)-3,8-diazabicyclo[3.2.1]octan-3-yl)-2-(((1S,7a'S)-2,2-difluorodihydro-1′H,3′H-spiro[cyclopropan-1,2′-pyrrolizin]-7a′(5′H)-yl)methoxy)-8-fluoropyridino[4,3-d]pyrimidin-7-yl)-5-amino-2-chlorobenzonitrile] | 66 nM | 779 nM | – | –
9 | N#Cc1c(Cl)cc(N)cc1-c1ncc2c(N3C[C@H]4CC[C@@H](C3)N4)nc(OC[C@@]34CCCN3C[C@@]3(CC3(F)F)C4)nc2c1F [Example 49, 2-(4-((1R,5S)-3,8-diazabicyclo[3.2.1]octan-3-yl)-2-(((1S,7a'S)-2,2-difluorodihydro-1′H,3′H-spiro[cyclopropan-1,2′-pyrrolizin]-7a′(5′H)-yl)methoxy)-8-fluoropyridino[4,3-d]pyrimidin-7-yl)-4-amino-6-chlorobenzonitrile] | 24.4 nM | > 1000 nM | – | –
10 | N#Cc1c(-c2ncc3c(N4C[C@H]5CC[C@@H](C4)N5)nc(OC[C@@]45CCCN4C[C@@]4(CC4(F)F)C5)nc3c2F)cc(N)cc1C(F)(F)F [Example 50, 2-(4-((1R,5S)-3,8-diazabicyclo[3.2.1]octan-3-yl)-2-(((1S,7a'S)-2,2-difluorodihydro-1′H,3′H-spiro[cyclopropan-1,2′-pyrrolizin]-7a′(5′H)-yl)methoxy)-8-fluoropyridino[4,3-d]pyrimidin-7-yl)-4-amino-6-(trifluoromethyl)benzonitrile] | > 100 nM | > 1000 nM | – | –
11 | Nc1cnc(C(F)(F)F)c(-c2ncc3c(N4C[C@H]5CC[C@@H](C4)N5)nc(OC[C@@]45CCCN4C[C@@]4(CC4(F)F)C5)nc3c2F)c1 [Example 52, 5-(4-((1R,5S)-3,8-diazabicyclo[3.2.1]octan-3-yl)-2-(((1S,7a'S)-2,2-difluorodihydro-1′H,3′H-spiro[cyclopropan-1,2′-pyrrolizin]-7a′(5′H)-yl)methoxy)-8-fluoropyridino[4,3-d]pyrimidin-7-yl)-6-(trifluoromethyl)pyridin-3-amine] | > 100 nM | > 1000 nM | – | –
12 | Nc1cncc(-c2ncc3c(N4C[C@H]5CC[C@@H](C4)N5)nc(OC[C@@]45CCCN4C[C@@]4(CC4(F)F)C5)nc3c2F)c1C(F)(F)F [Example 53, 5-(4-((1R,5S)-3,8-diazabicyclo[3.2.1]octan-3-yl)-2-(((1S,7a'S)-2,2-difluorodihydro-1′H,3′H-spiro[cyclopropan-1,2′-pyrrolizin]-7a′(5′H)-yl)methoxy)-8-fluoropyridino[4,3-d]pyrimidin-7-yl)-4-(trifluoromethyl)pyridin-3-amine] | 60 nM | 896 nM | – | –
13 | Cc1nc(N)cc(-c2ncc3c(N4C[C@H]5CC[C@@H](C4)N5)nc(OC[C@@]45CCCN4C[C@@]4(CC4(F)F)C5)nc3c2F)c1C(F)(F)F [Example 55, 4-(4-((1R,5S)-3,8-diazabicyclo[3.2.1]octan-3-yl)-2-(((1S,7a'S)-2,2-difluorodihydro-1′H,3′H-spiro[cyclopropan-1,2′-pyrrolizin]-7a′(5′H)-yl)methoxy)-8-fluoropyridino[4,3-d]pyrimidin-7-yl)-6-methyl-5-(trifluoromethyl)pyridin-2-amine] | 6.5 nM | 56.7 nM | – | –
14 | (1S,7a'S)-7a′-(((4-(1R,5S)-3,8-diazabicyclo[3.2.1]octan-3-yl)-7-(8-ethynyl-7-fluoronaphthol-1-yl)-8-fluoropyridino[4,3-d]pyrimidin-2-yl)oxy)methyl)-2,2-difluorodihydro-1′H,3′H-spiro[cyclopropan-1,2′-pyrrolizin] [Example 21] | – | – | 4.92 nM | 19.1 nM
